Experimental findings from patent US12668591B2, “1,2,4-oxadiazole derivatives as histone deacetylase 6 inhibitors” (Oryzon Genomics, S.A., priority 2017, dated 2026) are described below.

In test [1] the target is T1, HDAC6 (Homo sapiens, UniProt Q9UBN7).
T1 sequence (Q9UBN7 1-1215): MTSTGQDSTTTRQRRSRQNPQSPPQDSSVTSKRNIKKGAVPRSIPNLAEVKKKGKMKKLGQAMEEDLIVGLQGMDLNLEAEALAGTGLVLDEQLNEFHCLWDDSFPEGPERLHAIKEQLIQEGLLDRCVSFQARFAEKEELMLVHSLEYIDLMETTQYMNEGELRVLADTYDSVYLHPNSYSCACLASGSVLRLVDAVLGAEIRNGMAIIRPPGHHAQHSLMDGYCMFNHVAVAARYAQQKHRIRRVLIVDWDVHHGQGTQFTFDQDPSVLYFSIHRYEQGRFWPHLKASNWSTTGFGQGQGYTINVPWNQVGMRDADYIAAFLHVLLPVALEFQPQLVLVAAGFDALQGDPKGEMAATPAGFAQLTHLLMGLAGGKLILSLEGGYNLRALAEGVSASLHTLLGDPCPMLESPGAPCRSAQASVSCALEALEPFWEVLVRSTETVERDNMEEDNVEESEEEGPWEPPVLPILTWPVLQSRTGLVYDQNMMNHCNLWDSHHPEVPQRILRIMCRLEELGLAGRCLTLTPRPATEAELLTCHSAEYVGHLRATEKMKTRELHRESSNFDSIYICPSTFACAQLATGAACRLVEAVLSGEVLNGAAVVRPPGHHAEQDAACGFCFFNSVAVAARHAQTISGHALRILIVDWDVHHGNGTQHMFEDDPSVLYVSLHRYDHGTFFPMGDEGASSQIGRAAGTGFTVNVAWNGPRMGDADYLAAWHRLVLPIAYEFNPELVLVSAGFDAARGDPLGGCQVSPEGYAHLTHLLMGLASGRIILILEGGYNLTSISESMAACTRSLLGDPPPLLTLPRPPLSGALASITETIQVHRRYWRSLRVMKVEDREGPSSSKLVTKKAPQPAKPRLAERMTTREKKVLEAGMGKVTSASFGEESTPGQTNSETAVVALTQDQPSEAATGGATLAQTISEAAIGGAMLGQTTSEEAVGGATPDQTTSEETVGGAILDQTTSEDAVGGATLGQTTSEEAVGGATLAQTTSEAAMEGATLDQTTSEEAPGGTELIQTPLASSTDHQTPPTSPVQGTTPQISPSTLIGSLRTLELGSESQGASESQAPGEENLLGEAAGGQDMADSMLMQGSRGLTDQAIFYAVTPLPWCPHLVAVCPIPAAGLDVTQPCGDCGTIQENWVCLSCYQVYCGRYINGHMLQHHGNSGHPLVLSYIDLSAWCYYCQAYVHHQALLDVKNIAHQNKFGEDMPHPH
Description: In vitro cell-based assay: acetylation levels of Alpha-Tubulin by Western Blot in MOLP8 cells. The arrangement: endogenous in cells; host or cells: MOLP8. The settings on record: 18 h, acetyl-alpha-tubulin relative band intensity, ACY-1215 1 μM = 100%. The gist of the method:
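MOLP8 cells treated with compounds at 5 and 1 μM for 18 h at 37° C.; acetyl-alpha-tubulin measured by Western blot of RIPA extracts (7 μg protein). Bands normalized to total protein or beta-actin, expressed relative to ACY-1215 1 μM (100%), then classed.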

For test [2], the target named is T1, HDAC6. Description: HDAC6 enzyme inhibition assay (fluorimetric). The test is classed as biochemical. The settings on record: 1 μM compound; 3 h pre-incubation; recombinant full length HDAC6; read-out: HDAC6 % inh @ 1 μM. Here is the method:
(§1) HDAC6 and HDAC2 Enzyme Inhibition Assay
(§2) A fluorimetric assay was used for testing the activity of compounds of the invention against HDAC6 and HDAC2.
(§3) The compounds were dissolved in DMSO. Serial dilutions were prepared in DMSO and then diluted 1:10 in HDAC assay buffer (Tris-buffered solution, BPS Bioscience Inc. #50031). 5 μl of the compound dilution was added to a 50 μl reaction so that the final concentration of DMSO was 1%.
(§4) The compounds were pre-incubated in duplicate at RT for 3 hours in a mixture containing HDAC assay buffer, 5 μg BSA and recombinant HDAC enzyme (see table above). The enzymatic reactions were initiated by the addition of a fluorogenic, acetylated peptide substrate based on a histone protein (BPS Bioscience Inc. #50037) to a final concentration of 10 μM. The enzymatic reaction proceeded for 30 minutes at 37° C. Then, 50 μl of 2× HDAC Developer, which contains peptidase activity and Trichostatin A (BPS Bioscience Inc. #50030) was added and the plate was incubated at RT for an additional 15 minutes. Fluorescence intensity was measured at an excitation of 360 nm and an emission of 460 nm using a Tecan Infinite M1000 microplate reader.
(§5) Trichostatin A (TSA, Selleckchem #S1045) was used as reference inhibitor.
(§6) The fluorescent intensity data were analyzed using the computer software Graphpad Prism (GraphPad Software, San Diego, CA). 100% activity was defined as the fluorescent intensity (Ft) in the absence of the compound. 0% activity was defined as the fluorescent intensity (Fb) in the absence of the enzyme. The percent activity in the presence of each compound was calculated according to the following equation: % activity=(F−Fb)/(Ft−Fb), where F=the fluorescent intensity in the presence of the compound.

The target in test [3] is T2, HDAC2 (Homo sapiens, UniProt Q92769).
T2 construct: (full length with C-terminal His-tag); His (C); purchased BPS Bioscience Inc. 50002
T2 sequence (Q92769 whole entry): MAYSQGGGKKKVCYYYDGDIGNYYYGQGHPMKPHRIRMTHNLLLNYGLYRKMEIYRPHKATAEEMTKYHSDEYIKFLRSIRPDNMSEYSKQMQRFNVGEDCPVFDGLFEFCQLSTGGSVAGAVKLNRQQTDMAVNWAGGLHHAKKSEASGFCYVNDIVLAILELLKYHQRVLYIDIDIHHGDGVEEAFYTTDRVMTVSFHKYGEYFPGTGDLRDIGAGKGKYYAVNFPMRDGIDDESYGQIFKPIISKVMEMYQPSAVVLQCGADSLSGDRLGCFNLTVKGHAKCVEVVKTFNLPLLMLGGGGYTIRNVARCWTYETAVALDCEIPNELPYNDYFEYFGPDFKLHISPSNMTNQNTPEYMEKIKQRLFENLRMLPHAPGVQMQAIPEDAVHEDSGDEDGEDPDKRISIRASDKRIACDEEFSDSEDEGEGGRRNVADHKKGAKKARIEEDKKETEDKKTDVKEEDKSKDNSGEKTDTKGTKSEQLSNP
The test is described as follows: HDAC2 enzyme inhibition assay (fluorimetric). The settings on record: 1 μM compound; 3 h pre-incubation; recombinant full length HDAC2; read-out: HDAC2 % inh @ 1 μM. The test is classed as biochemical. Here is the method:
as §1, §2, §3, §4, §5, §6

The structures appear in SMILES notation.

`CCCCn1cc(C2=CCN(C)CC2)c2cc(-c3cc(-c4noc(C(F)(F)F)n4)ccn3)ncc21` [Example 1aq, 3-(2-(1-Butyl-3-(1-methyl-1,2,3,6-tetrahydropyridin-4-yl)-1H-pyrrolo[2,3-c]pyridin-5-yl)pyridin-4-yl)-5-(trifluoromethyl)-1,2,4-oxadiazole]: in test [1], the “Cellular activity @1 uM” value was “++ (150-300)” and the “Cellular activity @5 uM” value is given as “++ (150-300)”. Further, in test [2], the inhibition at 1 µM stood at 89%. Moreover, the inhibition at 1 µM in test [3] amounted to 2%.

For the compound `COCCn1ccc2cnc(-c3cc(-c4noc(C(F)(F)F)n4)ccn3)cc21` [Example 1au, 3-(2-(1-(2-Methoxyethyl)-1H-pyrrolo[3,2-c]pyridin-6-yl)pyridin-4-yl)-5-(trifluoromethyl)-1,2,4-oxadiazole], in test [1], the “Cellular activity @1 uM” value is “+ (50-150)”. The “Cellular activity @5 uM” value in test [1] was “++ (150-300)”. Further, the results for the inhibition at 1 µM in test [2] and in test [3] were 85% and 19%, respectively.

Regarding `FC(F)(F)c1nc(-c2ccnc(-c3cc4c(ccn4Cc4ccccn4)cn3)c2)no1` [Example 1aw, 3-(2-(1-(Pyridin-2-ylmethyl)-1H-pyrrolo[3,2-c]pyridin-6-yl)pyridin-4-yl)-5-(trifluoromethyl)-1,2,4-oxadiazole], in test [1], the “Cellular activity @1 uM” value is given as “+ (50-150)”. The “Cellular activity @5 uM” value in test [1] was “++ (150-300)”. For the same compound, the values for the inhibition at 1 µM in test [2] and in test [3] were 81% and 15%, respectively.

Turning to `CCN(CC)CCCOc1ccc(-c2cc(-c3noc(C(F)(F)F)n3)ccn2)nc1` [Example 1c, N,N-Diethyl-3-((4′-(5-(trifluoromethyl)-1,2,4-oxadiazol-3-yl)-[2,2′-bipyridin]-5-yl)oxy)propan-1-amine], the “Cellular activity @1 uM” value in test [1] is “+ (50-150)”. In addition, the “Cellular activity @5 uM” value in test [1] is “++ (150-300)”. The values for the inhibition at 1 µM in test [2] and in test [3] were 89% and 3%, respectively.

Regarding `FC(F)(F)c1nc(-c2ccnc(-c3ccc(OCCCN4CCOCC4)cn3)c2)no1` [Example 1e, 4-(3-((4′-(5-(Trifluoromethyl)-1,2,4-oxadiazol-3-yl)-[2,2′-bipyridin]-5-yl)oxy)propyl)morpholine], in test [1], the “Cellular activity @1 uM” value was “+ (50-150)” and the “Cellular activity @5 uM” value is listed as “++ (150-300)”. Moreover, the inhibition at 1 µM in test [2] is 84%. Moreover, in test [3], the inhibition at 1 µM was determined as 9%.

Regarding `FC1(F)CCN(CCCOc2ccc(-c3cc(-c4noc(C(F)(F)F)n4)ccn3)nc2)CC1` [Example 1f, 3-(5′-(3-(4,4-Difluoropiperidin-1-yl)propoxy)-[2,2′-bipyridin]-4-yl)-5-(trifluoromethyl)-1,2,4-oxadiazole], in test [1], the “Cellular activity @1 uM” value is recorded as “− (<50)” and the “Cellular activity @5 uM” value is recorded as “++ (150-300)”. Moreover, the inhibition at 1 µM in test [2] came to 71%. For the same compound, the inhibition at 1 µM in test [3] turned out to be 16%.

Regarding `CCCn1cc(CN2CCCCC2)c2cc(-c3cc(-c4noc(C(F)(F)F)n4)ccn3)ncc21` [Example 1g, 3-(2-(3-(Piperidin-1-ylmethyl)-1-propyl-1H-pyrrolo[2,3-c]pyridin-5-yl)pyridin-4-yl)-5-(trifluoromethyl)-1,2,4-oxadiazole], in test [1], the “Cellular activity @1 uM” value is “+ (50-150)” and the “Cellular activity @5 uM” value is recorded as “+++ (>300)”. For the same compound, the inhibition at 1 µM in test [2] was found to be 96%. For the same compound, the inhibition at 1 µM in test [3] is 38%.

On to `CN(CC1CC1)c1ccc(-c2cc(-c3noc(C(F)(F)F)n3)ccn2)nc1` [Example 1j, N-(Cyclopropylmethyl)-N-methyl-4′-(5-(trifluoromethyl)-1,2,4-oxadiazol-3-yl)-[2,2′-bipyridin]-5-amine], for which, in test [1], the “Cellular activity @1 uM” value is recorded as “− (<50)”. Besides, the “Cellular activity @5 uM” value in test [1] is “++ (150-300)”. Besides, the inhibition at 1 µM in test [2] is 69%; in test [3], 10%.

In the case of `CCN(CC)CCCNc1ccc(-c2cc(-c3noc(C(F)(F)F)n3)ccn2)nc1` [Example 1k, N^1,N^1-Diethyl-N^3-(4′-(5-(trifluoromethyl)-1,2,4-oxadiazol-3-yl)-[2,2′-bipyridin]-5-yl)propane-1,3-diamine], in test [1], the “Cellular activity @1 uM” value was “+ (50-150)” and the “Cellular activity @5 uM” value was “+ (50-150)”. The inhibition at 1 µM in test [2] turned out to be 95%. The inhibition at 1 µM in test [3] amounted to 27%.

On to `FC(F)(F)c1nc(-c2ccnc(-c3cc4c(ccn4C4CCOCC4)cn3)c2)no1` [Example 1o, 3-(2-(1-(Tetrahydro-2H-pyran-4-yl)-1H-pyrrolo[3,2-c]pyridin-6-yl)pyridin-4-yl)-5-(trifluoromethyl)-1,2,4-oxadiazole], for which, in test [1], the “Cellular activity @1 uM” value was “++ (150-300)”. Moreover, in test [1], the “Cellular activity @5 uM” value is listed as “+++ (>300)”. Besides, the results for the inhibition at 1 µM in test [2] and in test [3] were 97% and 23%, respectively.

As for `O=C(Cc1ccccc1)Nc1ccc(-c2cc(-c3noc(C(F)(F)F)n3)ccn2)nc1` [Example 1q, 2-Phenyl-N-(4′-(5-(trifluoromethyl)-1,2,4-oxadiazol-3-yl)-[2,2′-bipyridin]-5-yl)acetamide], the “Cellular activity @1 uM” value in test [1] is given as “+ (50-150)”. For the same compound, in test [1], the “Cellular activity @5 uM” value is reported as “++ (150-300)”. The results for the inhibition at 1 µM in test [2] and in test [3] were 73% and 11%, respectively.

With `CN(C)C(=O)c1cc2cc(-c3cc(-c4noc(C(F)(F)F)n4)ccn3)ncc2n1C` [Example 1u, N,N,1-Trimethyl-5-(4-(5-(trifluoromethyl)-1,2,4-oxadiazol-3-yl)pyridin-2-yl)-1H-pyrrolo[2,3-c]pyridine-2-carboxamide], in test [1], the “Cellular activity @1 uM” value is recorded as “+++ (>300)” and the “Cellular activity @5 uM” value is recorded as “+++ (>300)”. For the same compound, the inhibition at 1 µM in test [2] stood at 98%. Besides, the inhibition at 1 µM in test [3] stood at 19%.

In the case of `CCCn1cc(-c2cn[nH]c2)c2cc(-c3cc(-c4noc(C(F)(F)F)n4)ccn3)ncc21` [Example 1v, 3-(2-(1-Propyl-3-(1H-pyrazol-4-yl)-1H-pyrrolo[2,3-c]pyridin-5-yl)pyridin-4-yl)-5-(trifluoromethyl)-1,2,4-oxadiazole], the “Cellular activity @1 uM” value in test [1] was “+ (50-150)”. Besides, in test [1], the “Cellular activity @5 uM” value was “+++ (>300)”. For the same compound, the inhibition at 1 µM in test [2] was 66%; in test [3], 3%.

In the case of `CCCCn1c(C(=O)N(CC)CC)cc2cc(-c3cc(-c4noc(C(F)(F)F)n4)ccn3)ncc21` [Example 1w, 1-Butyl-N,N-diethyl-5-(4-(5-(trifluoromethyl)-1,2,4-oxadiazol-3-yl)pyridin-2-yl)-1H-pyrrolo[2,3-c]pyridine-2-carboxamide], in test [1], the “Cellular activity @1 uM” value is given as “+ (50-150)” and the “Cellular activity @5 uM” value is “++ (150-300)”. In test [2], the inhibition at 1 µM worked out at 86%. Moreover, the inhibition at 1 µM in test [3] was 6%.
